Legend:
[1] = literature; cited from earlier work
[2] = background art; cited from earlier work
[3] = tested on: active oxygens generated by PMA-stimulated polymorphonuclear leukocytes (PMN); experiment: Active oxygen scavenging activity, PMN-PMA system (CLA chemiluminescence); type: cell-based, human (healthy adult); conditions: 37° C., approximately 10 minutes
Experimental: Venous blood (10 ml) was taken from a healthy adult, and polymorphonuclear leukocytes (abbreviated to PMN) were isolated therefrom. The leukocytes were suspended in HBSS (Hanks' balanced salt solution) to approximately 1×10^6 cells/ml. 2-Methyl-6-phenyl-3,7-dihydroimidazo-(1,2-a)-pyrazin-3-on (hereinafter referred to as CLA) as a chemiluminescent compound, that is, a compound which may generate chemiluminescence due to the presence of active oxygens, was dissolved in a phosphate buffered saline (hereinafter referred to as PBS) to the concentration of 50 μM. Phorbol myristate acetate (abbreviated to PMA) as a polymorphonuclear leukocyte stimulating agent, that is, a compound which may generate active oxygens by stimulating polymorphonuclear leukocytes, was dissolved in PBS to the concentration of 20 μg/ml. The PMN suspension, the CLA solution, and the PMA solution were cooled with ice for storage until use for measurement.
6-Formyl-pterin as the active ingredient of the active oxygen scavenger according to the present invention was dissolved in PBS to the concentrations of 100 μM, 250 μM, or 500 μM, and then warmed to 37° C. before measurement. PBS as a control was also warmed to 37° C. before measurement.
To polymorphonuclear leukocytes isolated from 2 ml of the PMN suspension by centrifugation, the 6-formyl-pterin solutions of various concentrations or PBS were added to adjust total volume to 1930 μl. The mixtures were poured into test tubes and warmed at 37° C. for 15 minutes. After adding the CLA solution (50 μl), the mixture was placed in a chemiluminescence reader and the measurement of an amount of chemiluminescence was started. After 1 minute from the beginning of the measurement, the PMA solution (20 μl) was injected into the test tube with a syringe. The measurement was performed at 37° C. for approximately 10 minutes while monitoring every 10 seconds.
FIG. 1 is a graph showing a total chemiluminescence amount obtained by accumulating chemiluminescence amounts measured every 10 seconds.

[4] = Active oxygen scavenging activity, active oxygen derived from potassium superoxide in DMSO (electron spin resonance spectroscopy); conditions: ESR at 77K, vs no addition
Experimental: Potassium superoxide (KO2) (28 mg) was added to dimethyl sulfoxide (DMSO) (20 ml) to prepare a saturated solution so that active oxygens were generated in DMSO. As a standard substance, 2,2,6,6-tetramethylpiperidine-N-oxide (TEMPO) was used. TEMPO was dissolved in DMSO in the concentrations of 0.1, 0.3, 0.5, 0.7, 1, 1.2, or 1.5 mM. The electron spin resonance signals obtained (measured at 77K) were integrated to prepare a standard curve.

[5] = tested on: delayed neuronal death (DND) in the cerebral hippocampus area; experiment: Suppression of delayed neuronal death in transient cerebral ischemia model gerbils (MAP2 staining of hippocampus); type: in vivo, gerbil; conditions: 50 mM in physiological saline (1 ml) intraperitoneally 30 minutes after resumption of bloodstream, after 1 week
Experimental: A neck of each gerbil (body weigh=approximately 80 g) under a general anesthesia was incised. Ambilateral carotids were visually ligated with clips to cut off a bloodstream. After 5 minutes, the bloodstream was resumed, and the incision was sutured. After 30 minutes from the resumption of the bloodstream, physiological saline (1 ml) was intraperitoneally administered to a control group of the gerbils, whereas 50 mM of 6-formyl-pterin in physiological saline (1 ml) was intraperitoneally administered to an administering group of the gerbils. Thereafter, gerbils came out from anesthesia and then were bred for 1 week. Then, a brain was extirpated from each gerbil under a general anesthesia. Tissue slices were prepared from the brain and stained with microtubule-associated protein 2 (MAP2) which can specifically stain neurons, to evaluate the degree of delayed neuronal death (DND) in the cerebral hippocampus area.
FIG. 3 is a photomicrograph of a slice of a cerebral hippocampus tissue from a completely normal gerbil which had not encountered hemostasis, FIG. 4 is a photomicrograph of a slice of a cerebral hippocampus tissue from the control group, and FIG. 5 is a photomicrograph of a slice of a cerebral hippocampus tissue from the 6-formyl-pterin-administering group. […]

rats = experiment: Acute toxicity, intravenous; type: in vivo, rat; conditions: 6 mg/kg intravenously; 10 rats; observed for 3 months
Text: Acute toxicity of 6-formyl-pterin was examined, using rats.

SMILES | antioxidative activity against active oxygens [1] | teratogenicity [2] | amount of chemiluminescence, i.e., the amount of active oxygens ([3]; 100 μM, vs PBS control (FIG. 1, curve b)) | amount of chemiluminescence, i.e., the amount of active oxygens ([3]; 250 μM, vs PBS control (FIG. 1, curve c)) | amount of chemiluminescence, i.e., the amount of active oxygens ([3]; 500 μM, vs PBS control (FIG. 1, curve d)) | amount of active oxygens generated from KO2 ([4]; 1 mM 6-formyl-pterin) | amount of active oxygens generated from KO2 ([4]; from 0.1 mM 6-formyl-pterin) | delayed neuronal death [5] | state of neurons in cerebral hippocampus tissue slice (FIG. 5) ([5]; control: neurons completely dropped) | death (acute toxicity) (rats)
Nc1nc2c(c(=O)[nH]1)NC([C@H](O)[C@H](O)CO)CN2 (some centres unmarked) [NPH4, 5,6,7,8-tetrahydroneopterin] | potent antioxidative activity | exhibits teratogenicity |  |  |  |  |  |  |  | 
Nc1nc2ncc(C=O)nc2c(=O)[nH]1 [6-formyl-pterin] |  |  | significantly suppressed | almost disappeared | almost disappeared | almost disappeared | lowered | suppressed | many neurons were living | No death was observed
Nc1nc2ncc([C@H](O)[C@H](O)CO)nc2c(=O)[nH]1 [NP, 2-amino-4-oxo-6-(D-erythro-1',2',3'-trihydroxypropyl)-pteridine] | antioxidative activity against active oxygens |  |  |  |  |  |  |  |  | 

— US6162806A, “Active oxygen scavengers containing pterin derivatives” (Artemis, Inc., priority 1996, dated 2000)
